Data reported in patent US5948792A, “Fluorine-containing 1,4-disubstituted piperidine derivatives” (Banyu Pharmaceutical Co., Ltd., priority 1996, dated 1999).

Columns and labels:
Muscarinic M3 receptor [1] = biological target: T1, Muscarinic M3 receptor (Homo sapiens, UniProt P20309); test: Inhibition of binding of [3H]-N-methylscopolamine to muscarinic M3 receptor
T1 construct: purchased Receptor Biology, Inc; host or cells: CHO cells (membranes)
Method: Tests on Inhibition of Binding to Muscarinic Receptors
These tests were performed according to a modification of the method of Hargreaves et al. (Br. J. Pharmacol. 107: 494-501, 1992). Membranes from CHO cells expressing cloned human m1-m5 (Receptor Biology, Inc.) were incubated with 0.2 nM [^3 H]-N-methylscopolamine and each a compound of the present invention to be tested in 0.5 ml of 50 mM Tris-HCl-10 mM MgCl2 -1 mM EDTA (pH 7.4) for 2 hours at 25° C. Free and membrane-bound [^3 H]-N-methylscopolamine were separated by filtration over glass filters (UniFilter-GF/C; Packard Instruments Co., Inc.) using cell harvester (Filtermate™ 196; Packard Instruments Co., Inc.). Then the filter was washed four times with 1 ml of ice-cold Tris-HCl (pH 7.4) and dried at 50° C. After adding a scintillator (Microscinti 0; Packard Instruments Co., Inc.), the radioactivity was counted by a liquid scintillation counter (TopCount™; Packard Instruments Co., Inc.). Non-specific binding was measured in the presence of 1 μM N-methylscopolamine.

M2 receptor = biological target: T2, M2 receptor (Rattus norvegicus, UniProt P10980); test: Antagonism to M2 receptor in an isolated rat right atrium (in vitro); format: cell-based; settings: carbachol-induced decrease in heart rate
T2 construct: the right atrium was isolated; from tissue; host or cells: isolated right atrium of male SD strain rat
T2 sequence (P10980 1-466): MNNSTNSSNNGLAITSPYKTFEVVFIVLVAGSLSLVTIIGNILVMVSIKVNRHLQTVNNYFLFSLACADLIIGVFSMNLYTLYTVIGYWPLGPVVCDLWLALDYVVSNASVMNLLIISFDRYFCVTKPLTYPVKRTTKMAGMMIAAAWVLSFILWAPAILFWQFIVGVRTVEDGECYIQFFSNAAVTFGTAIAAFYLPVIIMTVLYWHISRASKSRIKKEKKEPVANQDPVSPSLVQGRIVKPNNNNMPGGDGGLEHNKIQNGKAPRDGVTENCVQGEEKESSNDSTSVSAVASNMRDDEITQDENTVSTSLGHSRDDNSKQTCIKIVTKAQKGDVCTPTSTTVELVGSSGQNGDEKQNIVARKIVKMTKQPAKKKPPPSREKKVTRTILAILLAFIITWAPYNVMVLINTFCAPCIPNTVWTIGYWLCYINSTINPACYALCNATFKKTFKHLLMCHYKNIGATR
Method: Tests for Antagonism to Muscarinic Receptors (in vitro)
1) Tests for Antagonism to M2 receptor in an Isolated Rat Right Atrium
These tests were performed according to a conventional method. A male SD strain rat (weighing 300-500 g) was killed by exsanguination, and the right atrium was isolated. This preparation was isometrically suspended in organ bath filled with 20 ml of Krebs-Henseleit solution (gassed with 95% O2 -5% CO2 and kept at 32° C.) with an initial tension of 0.5 g. The heart rate was recorded with a heart rate counter. After the preparation was equilibrated for 30 minutes, carbachol (10^-9 to 10^-6 M) was cumulatively administered in three-fold increasing doses. Thus, a decrease in heart rate was measured to obtain a dose-response curve for the control experiment. After the preparation was washed with fresh solution to restore the heart rate, a test compound was administered thereto. Ten minutes later, carbachol was cumulatively administered again. Responses to carbachol were expressed as percentages based on the heart rate before administration of carbachol as 100%. The antagonistic potency (KB value) of the test compound was determined from the degree of shift of the dose-response curve obtained by treatment with individual test compound of the present invention.

Muscarinic M3 Receptor [2] = biological target: T3, Muscarinic M3 Receptor (Rattus norvegicus, UniProt P08483); test: Bronchodilation in rats (i.v.), inhibition of acetylcholine-induced increase in airway resistance; format: in vivo; settings: iv, 5 min, acetylcholine 50 μg/kg i.v. 5 minutes after test compound, read-out: Inhibition of Airway Contraction ED50 iv
T3 construct: male rats of the Sprague-Dawley strain; from tissue; host or cells: airways of living male Sprague-Dawley rats (in vivo)
T3 sequence (P08483 whole entry): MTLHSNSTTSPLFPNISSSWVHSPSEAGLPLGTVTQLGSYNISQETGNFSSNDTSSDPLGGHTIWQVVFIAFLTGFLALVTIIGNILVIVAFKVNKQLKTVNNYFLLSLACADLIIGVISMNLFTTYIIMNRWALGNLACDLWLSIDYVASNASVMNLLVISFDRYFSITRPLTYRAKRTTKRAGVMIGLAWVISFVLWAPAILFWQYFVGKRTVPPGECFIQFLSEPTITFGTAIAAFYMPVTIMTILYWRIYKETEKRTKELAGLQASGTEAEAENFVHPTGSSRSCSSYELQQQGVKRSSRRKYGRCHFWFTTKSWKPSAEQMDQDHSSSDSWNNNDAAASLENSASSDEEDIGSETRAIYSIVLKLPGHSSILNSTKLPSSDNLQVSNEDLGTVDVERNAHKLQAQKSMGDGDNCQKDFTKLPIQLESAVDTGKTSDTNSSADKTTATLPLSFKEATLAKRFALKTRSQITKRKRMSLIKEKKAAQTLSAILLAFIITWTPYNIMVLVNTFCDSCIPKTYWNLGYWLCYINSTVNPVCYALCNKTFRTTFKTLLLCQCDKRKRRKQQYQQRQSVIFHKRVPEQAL
Method: Tests for Antagonism Against Muscarinic M3 Receptor (in vivo)
1-A) Tests for Bronchodilation in Rats (i.v.).
Eight- to eleven-weeks-old male rats of the Sprague-Dawley strain, weighing 380-420 g, were anesthetized with urethane (750 mg/kg. i.p.) and α-chloralose (37.5 mg/kg, i.p.). The bronchus of each rat was intubated, and the right jugular vein was cannulated for drug administration. […] To evoke an increase in airway resistance, acetylcholine (50 μg/kg, i.v.) was administered to the animals. The acetylcholine-induced airway resistance increase was measured 5 minutes before and 5 minutes after administration of test compound, and the ratio of the airway resistance of the latter to the former was calculated. In controls, isotonic sodium chloride solution was used in place of the test compounds and otherwise identical procedures were repeated, the calculated ratio being set to be 100%.

T1 sequence (P20309 whole entry): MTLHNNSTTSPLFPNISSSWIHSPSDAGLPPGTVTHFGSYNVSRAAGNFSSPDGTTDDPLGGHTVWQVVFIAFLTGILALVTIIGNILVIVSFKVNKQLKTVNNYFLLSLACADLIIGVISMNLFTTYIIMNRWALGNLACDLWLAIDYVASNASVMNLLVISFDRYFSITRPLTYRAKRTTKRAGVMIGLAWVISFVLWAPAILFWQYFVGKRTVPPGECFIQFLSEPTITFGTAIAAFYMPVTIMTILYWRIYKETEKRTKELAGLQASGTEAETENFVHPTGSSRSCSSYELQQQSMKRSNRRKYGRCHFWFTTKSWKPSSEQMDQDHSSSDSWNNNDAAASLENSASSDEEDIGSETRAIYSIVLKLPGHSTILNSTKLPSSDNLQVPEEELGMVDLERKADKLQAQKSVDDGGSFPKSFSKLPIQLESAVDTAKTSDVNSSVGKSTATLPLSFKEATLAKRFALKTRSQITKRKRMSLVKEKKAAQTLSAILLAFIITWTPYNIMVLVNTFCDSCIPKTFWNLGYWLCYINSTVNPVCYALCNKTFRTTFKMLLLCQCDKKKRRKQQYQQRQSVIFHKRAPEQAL

Cl.Cl.Nc1cccc(CN2CCC(NC(=O)[C@](O)(c3ccccc3)[C@@H]3CCC(F)(F)C3)CC2)n1 [Example 20, (2R)-N-[1-(6-aminopyridin-2-ylmethyl)piperidin-4-yl]-2-[(1R)-3,3-difluorocyclopentyl]-2-hydroxy-2-phenylacetamide dihydrochloride]
Ki (Muscarinic M3 receptor [1]; CHO cell membranes expressing cloned human receptor, 0.2 nM [3H]-N-methylscopolamine, pH 7.4, 2 hours, 25° C, read-out: Ki M3 (inhibitory effects on binding to muscarinic M3 receptor)): 3 nM | M2/M3 (ratio of binding Ki) (Muscarinic M3 receptor [1]; selectivity ratio of Ki values, binding): 180 | Kb (M2 receptor): 2100 nM | ED50 (Muscarinic M3 Receptor [2]): 0.04 mg/kg

O=C(NC1CCN(Cc2ccsc2)CC1)[C@](O)(c1ccccc1)[C@@H]1CCC(F)(F)C1 [Example 11, (2R)-N-[1-(3-thienylmethyl)piperidin-4-yl]-2-[(1R)-3,3-difluorocyclopentyl]-2-hydroxy-2-phenylacetamide]
Kb (M2 receptor): 610 nM | ED50 (Muscarinic M3 Receptor [2]): 0.032 mg/kg
